In ChEMBL document CHEMBL1201862, “PubChem BioAssay data set” (2004):
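Step 1: Grow cells in 96-well plates. Step 2: Expose to compound for 48 hours at 5 concentrations. Step 3: Interpolate endpoints linearly; if unreached, use highest concentration. GI50 marks 50% less growth.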 Activity calls are given as the source filed them. No stated cut-off is given here; in the data, active = GI50 up to about 1.1 µM and inactive = higher.

Columns and labels:
Assay in all cases: NCI-60 cell line screen, 48 h
LOX IMVI = system: LOX IMVI
MDA-MB-231 = system: MDA-MB-231
RPMI-8226 = system: RPMI-8226
HT-29 = system: HT-29
CAKI-1 = system: CAKI-1
A549 = system: A549
SNB-75 = system: SNB-75
HCT-15 = system: HCT-15
OVCAR-3 = system: OVCAR-3
SN12C = system: SN12C
NCI-H460 = system: NCI-H460
SK-MEL-28 = system: SK-MEL-28
ACHN = system: ACHN
CCRF-CEM = system: CCRF-CEM
Hs-578T = system: Hs-578T
MOLT-4 = system: MOLT-4
NCI-H226 = system: NCI-H226
NCI-H23 = system: NCI-H23
HCC 2998 = system: HCC 2998
786-0 = system: 786-0
RXF 393 = system: RXF 393
HCT-116 = system: HCT-116
UACC-257 = system: UACC-257
OVCAR-8 = system: OVCAR-8
MCF7 = system: MCF7
SW-620 = system: SW-620
SK-MEL-2 = system: SK-MEL-2
EKVX = system: EKVX
COLO 205 = system: COLO 205
MDA-MB-435 = system: MDA-MB-435
SK-OV-3 = system: SK-OV-3
BT-549 = system: BT-549
Malme-3M = system: Malme-3M
KM12 = system: KM12
NCI-H522 = system: NCI-H522
M14 = system: M14
PC-3 = system: PC-3
IGROV-1 = system: IGROV-1
SNB-19 = system: SNB-19
SF-539 = system: SF-539
SK-MEL-5 = system: SK-MEL-5
SF-295 = system: SF-295
OVCAR-4 = system: OVCAR-4
MDA-N = system: MDA-N
HL-60 = system: HL-60
NCI/ADR-RES = system: NCI/ADR-RES
T47D = system: T47D
OVCAR-5 = system: OVCAR-5
U-251 = system: U-251
K562 = system: K562
UACC-62 = system: UACC-62
HOP-62 = system: HOP-62
HOP-92 = system: HOP-92
SF-268 = system: SF-268

For `COc1ccc(C2SC(=N)Nc3c2c(C)nn3C(=O)c2ccccc2O)cc1` (centres undefined), the GI50 (LOX IMVI) was 3.6 µM (inactive), the GI50 (MDA-MB-231) was 986 nM (active) and the GI50 (RPMI-8226) was 1.56 µM (inactive). The GI50 (HT-29) was 5.11 µM (inactive), the GI50 (CAKI-1) was 667 nM (active) and the GI50 (A549) was 412 nM (active). The GI50 (SNB-75) was 308 nM (active), the GI50 (HCT-15) was 4.58 µM and the GI50 (OVCAR-3) was 1.96 µM (inactive). For the same molecule, the GI50 (SN12C) was 2.44 µM (inactive), the GI50 (NCI-H460) was 3.72 µM (inactive) and the GI50 (SK-MEL-28) was > 10 µM (inactive). The GI50 (ACHN) was 374 nM (active), the GI50 (CCRF-CEM) was 2.04 µM (inactive) and the GI50 (Hs-578T) was 490 nM (active). For the same molecule, the GI50 (MOLT-4) was 1.81 µM (inactive), the GI50 (NCI-H226) was 904 nM (active) and the GI50 (NCI-H23) was 933 nM (active). The GI50 (HCC 2998) was > 10 µM (inactive), the GI50 (786-0) was 1.31 µM (inactive) and the GI50 (RXF 393) was 532 nM (active). The GI50 (HCT-116) was 655 nM (active), the GI50 (UACC-257) was 2.81 µM (inactive) and the GI50 (OVCAR-8) was 998 nM (active). For the same molecule, the GI50 (MCF7) was 1.61 µM (inactive), the GI50 (SW-620) was 5.47 µM (inactive) and the GI50 (SK-MEL-2) was 2.57 µM (inactive). The GI50 (EKVX) was 7.38 µM (inactive), the GI50 (COLO 205) was 8.87 µM (inactive) and the GI50 (MDA-MB-435) was 455 nM (active). For the same molecule, the GI50 (SK-OV-3) was 5.32 µM (inactive), the GI50 (BT-549) was 1.16 µM (inactive) and the GI50 (Malme-3M) was 659 nM (active). The GI50 (KM12) was 2.89 µM (inactive), the GI50 (NCI-H522) was 3.85 µM (inactive) and the GI50 (M14) was 1.67 µM (inactive). The GI50 (PC-3) was 3.81 µM (inactive), the GI50 (IGROV-1) was 497 nM (active) and the GI50 (SNB-19) was > 10 µM (inactive). The GI50 (SF-539) was 270 nM (active), the GI50 (SK-MEL-5) was 2.59 µM (inactive) and the GI50 (SF-295) was 3.98 µM (inactive). The GI50 (OVCAR-4) was 1.9 µM (inactive), the GI50 (MDA-N) was 843 nM (active) and the GI50 (HL-60) was 2.58 µM (inactive). The GI50 (NCI/ADR-RES) was 2.12 µM (inactive), the GI50 (T47D) was 8.99 µM (inactive) and the GI50 (OVCAR-5) was 8.09 µM (inactive). For the same molecule, the GI50 (U-251) was 900 nM (active), the GI50 (K562) was 450 nM (active) and the GI50 (UACC-62) was 583 nM (active). The GI50 (HOP-62) was 2.77 µM (inactive), the GI50 (HOP-92) was > 10 µM (inactive) and the GI50 (SF-268) was 885 nM (active).
